Laboratory results taken from PubChem BioAssay AID2060352 (Molecular Pharmacology Branch, DTP, NCI, 2025).
Values joined by “and” are separate entries in the source; they are usually repeats but may differ in a detail not shown here. Identical values can stand only once.

Tested on: 616215-338-R-J1-PDC spheroid with HUVEC/MSC, viability
Assay: Anticancer human tumor 616215-338-R-J1-PDC patient-derived colon adenocarcinoma cell line growth inhibition [TAK]
Conditions: for viability, T/C: stronger effect = lower value
Procedure, shortened: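 Tumor cells were grown as spheroids with HUVEC and hMSC (60:25:15) and treated with targeted agents combined with TAK-243 or ipatasertib. Drugs were tested in half-log steps down from near the clinical Cmax, or from 10 microM where Cmax was unknown.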

[1] = curve of first compound, second compound 0.3 µM
[2] = curve of first compound, second compound 0.949 µM
[3] = curve of first compound, second compound 3 µM
[4] = curve of first compound, second compound 9.49 µM
[5] = curve of first compound, second compound 30 µM
[6] = second compound 0.3 µM, first compound 0.00949 µM
[7] = second compound 0.3 µM, first compound 0.03 µM
[8] = second compound 0.949 µM, first compound 0.00949 µM
[9] = second compound 0.949 µM, first compound 0.03 µM
[10] = second compound 3 µM, first compound 0.00949 µM
[11] = second compound 3 µM, first compound 0.03 µM
[12] = second compound 9.49 µM, first compound 0.00949 µM
[13] = second compound 9.49 µM, first compound 0.03 µM
[14] = second compound 30 µM, first compound 0.00949 µM
[15] = second compound 30 µM, first compound 0.03 µM
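Note: spheroids exposed to drugs for 7 days before readout.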

CC(=O)Nc1cccc(-n2c(=O)n(C3CC3)c(=O)c3c(Nc4ccc(I)cc4F)n(C)c(=O)c(C)c32)c1 + CC(C)NCC(C(=O)N1CCN(c2ncnc3c2C(C)CC3O)CC1)c1ccc(Cl)cc1
IC50 [1]: 4.61 nM | IC50 [2]: 1.65 nM | IC50 [3]: 0.213 nM | IC50 [4]: < 0.0949 nM | IC50 [5]: < 0.0949 nM | viability, T/C (second compound 0.3 µM, first compound 94.9 pM): 131% | viability, T/C (second compound 0.3 µM, first compound 0.0003 µM): 132% | viability, T/C (second compound 0.3 µM, first compound 0.000949 µM): 125% | viability, T/C (second compound 0.3 µM, first compound 0.003 µM): 69.9% | viability, T/C [6]: 16.6% | viability, T/C [7]: 3.1% | viability, T/C (second compound 0.949 µM, first compound 94.9 pM): 134% | viability, T/C (second compound 0.949 µM, first compound 0.0003 µM): 130% | viability, T/C (second compound 0.949 µM, first compound 0.000949 µM): 69.7% | viability, T/C (second compound 0.949 µM, first compound 0.003 µM): 28.1% | viability, T/C [8]: 9.36% | viability, T/C [9]: 1.03% | viability, T/C (second compound 3 µM, first compound 94.9 pM): 57.9% | viability, T/C (second compound 3 µM, first compound 0.0003 µM): 47.6% | viability, T/C (second compound 3 µM, first compound 0.000949 µM): 25.3% | viability, T/C (second compound 3 µM, first compound 0.003 µM): 11.9% | viability, T/C [10]: 4.2% | viability, T/C [11]: 0.83% | viability, T/C (second compound 9.49 µM, first compound 94.9 pM): 22% | viability, T/C (second compound 9.49 µM, first compound 0.0003 µM): 18.4% | viability, T/C (second compound 9.49 µM, first compound 0.000949 µM): 12.3% | viability, T/C (second compound 9.49 µM, first compound 0.003 µM): 6.63% | viability, T/C [12]: 2.23% | viability, T/C [13]: 1.12% | viability, T/C (second compound 30 µM, first compound 94.9 pM): 10.7% | viability, T/C (second compound 30 µM, first compound 0.0003 µM): 9.94% | viability, T/C (second compound 30 µM, first compound 0.000949 µM): 6.33% | viability, T/C (second compound 30 µM, first compound 0.003 µM): 3.43% | viability, T/C [14]: 1.53% | viability, T/C [15]: 1.15%

Cn1cnc2c(F)c(Nc3ccc(Br)cc3Cl)c(C(=O)NOCCO)cc21 + CC(C)NCC(C(=O)N1CCN(c2ncnc3c2C(C)CC3O)CC1)c1ccc(Cl)cc1
IC50 [1]: 660 nM | IC50 [2]: 193 nM | IC50 [3]: 18.3 nM | IC50 [4]: < 9.49 nM | IC50 [5]: < 9.49 nM | viability, T/C [6]: 128% | viability, T/C [7]: 145% | viability, T/C (second compound 0.3 µM, first compound 0.0949 µM): 134% | viability, T/C (second compound 0.3 µM, first compound 0.3 µM): 97.5% | viability, T/C (second compound 0.3 µM, first compound 0.949 µM): 28.6% | viability, T/C (second compound 0.3 µM, first compound 3 µM): 10.1% | viability, T/C [8]: 127% | viability, T/C [9]: 110% | viability, T/C (second compound 0.949 µM, first compound 0.0949 µM): 68.7% | viability, T/C (second compound 0.949 µM, first compound 0.3 µM): 37.1% | viability, T/C (second compound 0.949 µM, first compound 0.949 µM): 16.3% | viability, T/C (second compound 0.949 µM, first compound 3 µM): 1.88% | viability, T/C [10]: 62.6% | viability, T/C [11]: 39.6% | viability, T/C (second compound 3 µM, first compound 0.0949 µM): 26.2% | viability, T/C (second compound 3 µM, first compound 0.3 µM): 18.2% | viability, T/C (second compound 3 µM, first compound 0.949 µM): 7.02% | viability, T/C (second compound 3 µM, first compound 3 µM): 2.31% | viability, T/C [12]: 20.1% | viability, T/C [13]: 16.6% | viability, T/C (second compound 9.49 µM, first compound 0.0949 µM): 12.3% | viability, T/C (second compound 9.49 µM, first compound 0.3 µM): 8.61% | viability, T/C (second compound 9.49 µM, first compound 0.949 µM): 3.42% | viability, T/C (second compound 9.49 µM, first compound 3 µM): 1.74% | viability, T/C [14]: 9.63% | viability, T/C [15]: 9.43% | viability, T/C (second compound 30 µM, first compound 0.0949 µM): 6.77% | viability, T/C (second compound 30 µM, first compound 0.3 µM): 4.12% | viability, T/C (second compound 30 µM, first compound 0.949 µM): 1.89% | viability, T/C (second compound 30 µM, first compound 3 µM): 1.35%

COC1CC2CCC(C)C(O)(O2)C(=O)C(=O)N2CCCCC2C(=O)OC(C(C)CC2CCC(OCCO)C(OC)C2)CC(=O)C(C)C=C(C)C(O)C(OC)C(=O)C(C)CC(C)C=CC=CC=C1C (configuration not stated)
viability, T/C (compound 0.000316 µM): 98.5% and 109% | viability, T/C (compound 0.001 µM): 93.9% and 116% | viability, T/C (compound 0.00316 µM): 96.7% and 111% | viability, T/C (compound 0.01 µM): 107% and 112% | viability, T/C (compound 0.0316 µM): 110% and 117% | viability, T/C (compound 0.1 µM): 110% and 83% | IC50 (curve of compound): > 100 nM
